Where “and” joins values, the source holds several entries; their conditions need not be identical. Equal values may be shown once. Read-outs that look alike come from different tables or passages of the source.
Tests used:
[1] = system: late sodium current (late INa); experiment: Whole-cell patch-clamp of late INa in isolated ventricular myocytes; format: cell-based, guinea pig; details: for effect of ouabain (1 μmol/L) to increase late INa: FIG. 10, intracellular KN-93 10 μmol/L, EGTA 1 mmol/L, KN-92 10 μmol/L; for increase of late INa at the end of a 10-min exposure to ouabain / late INa at the end of a 10-min exposure to ouabain: ouabain 1 μmol/L
[2] = system: guinea pig isolated, perfused heart
[3] = system: [Na+]i of guinea pig isolated heart; experiment: 23Na-NMR spectroscopy of intracellular sodium concentration in isolated heart
[4] = system: isolated guinea pig papillary muscles
Na+, K+-ATPase = experiment: Na+,K+-ATPase activity assay by 86Rb+ uptake of A7r5 cells; format: cell-based; details: for 86Rb+ uptake: control = activity in presence of ouabain
From the text: The activity of Na^+, K^+-ATPase was inhibited 77% by 1 mmol/L ouabain in the absence (control) of ranolazine. Values of ^86Rb^+ uptake were 91±11, 98±2.5, and 93±8.3% of control (activity in presence of ouabain) in the presence of 3, 10, and 30 μmol/L ranolazine, respectively.

[5] = system: guinea pig isolated, perfused heart; experiment: 31P-NMR spectroscopy of energy-related phosphates and pHi in isolated heart
[6] = agent 10 μmol/L intracellular via patch pipette
[7] = 0.75 μmol/L ouabain in the presence of 10 μmol/L ranolazine
[8] = 0.75 μmol/L ouabain in the presence of 10 μmol/L ranolazine, 60 min

COc1ccc(S(=O)(=O)Nc2ccccc2CN(C)C/C=C/c2ccc(Cl)cc2)cc1 [KN-92]
effect of ouabain (1 μmol/L) to increase late INa [1]: not | increase of late INa at the end of a 10-min exposure to ouabain [1, 6]: 273±39% | late INa at the end of a 10-min exposure to ouabain [1, 6]: 72±7 pC/pF

NC1=N[C@H](O)[C@H]2[C@H]3O[C@]4(O)O[C@@H]([C@@H](O)[C@@]2(N1)[C@@H]4O)[C@]3(O)CO [TTX, tetrodotoxin]
LVSP decrease [2]: 9% and 18.2% | effect of ouabain to cause contractile dysfunction [2]: attenuated | episodes of cardiac standstill and changes in LVEDP [2]: neither episodes of cardiac standstill nor changes in LVEDP were observed | maximum value of RPP [2]: 35,569±1,850 mmHg/min and 39,182±2,216 mmHg/min | occurrence of episodes of cardiac standstill caused by ouabain [2]: reduced | positive inotropic effect of ouabain throughout the 60-min exposure [2]: sustained | recovery of contractile function after drug washout [2]: better recovery | responses of hearts exposed to ouabain [2]: comparable to those exposed to ouabain in the presence of 3 union ranolazine | [Na+]i [3]: did not significantly change | [Na+]i plateau concentration [3]: 10.5 ± 0.3 mmol/L | decrease in the ouabain-induced rise of [Na+]i [3]: concentration-dependent | effect of 1 μmol/L ouabain to increase late INa [1]: partially reversed | late INa [1]: 21.2±7.9 pC/pF | ouabain-induced late current [1]: completely inhibited | increase of diastolic tension during ouabain treatment [4]: attenuated

COc1ccccc1OCC(O)CN1CCN(CC(=O)Nc2c(C)cccc2C)CC1 (stereo not drawn) [ranolazine]
86Rb+ uptake (Na+, K+-ATPase; 3 μmol/L ranolazine): 91±11 % of control | 86Rb+ uptake (Na+, K+-ATPase; 10 μmol/L ranolazine): 98±2.5 % of control | 86Rb+ uptake (Na+, K+-ATPase; 30 μmol/L ranolazine): 93±8.3 % of control | effect on sodium pump activity (Na+, K+-ATPase; 3, 10, 30 μmol/L ranolazine): no measurable effect | effect of ouabain to cause contractile dysfunction [2]: attenuated | mechanical dysfunction (increase in end diastolic pressure, episodes of cardiac standstill) [2]: not observed | occurrence of episodes of cardiac standstill caused by ouabain [2]: reduced | maximum value of RPP ([2]; 0.75 μmol/L ouabain + 3 μmol/L ranolazine, n=8): 40,033±1,477 mmHg/min | positive inotropic response to ouabain during the 60-min exposure ([2]; 0.75 μmol/L ouabain + 5 μmol/L ranolazine): not sustained at a maximal level | maximum value of RPP ([2]; 0.75 μmol/L ouabain + 5 μmol/L ranolazine, n=5): 38,874±2,904 mmHg/min | maximum value of RPP ([2]; 0.75 μmol/L ouabain + 10 μmol/L ranolazine, n=8): 41,079±2,097 mmHg/min | positive inotropic response to ouabain ([2]; Example 1, RAN 10 μM, ouabain 0.75-1.3 μM for 60 min): did not reduce | systolic pressure during Ranolazine delivery ([2]; FIG. 2, 3.3 uM Ran pretreatment): slight drop | maximal inotropic effect of ouabain ([2]; FIG. 2, heart pretreated with 3.3 uM Ran): the same as in the ouabain alone treated hearts | SP (systolic pressure) ([2]; FIG. 3, 5 uM Ran): transient decrease | maximal positive inotropic effect of ouabain ([2]; FIG. 3, 5 uM Ran): not reduced | left ventricular contractile function over the duration of the experiment ([2]; FIG. 4, heart pretreated with 10 uM Ran): stable contractile function | ability of ouabain to significantly increase the pos dP/dt ([2]; FIG. 6): did not affect | RPP increase upon infusion with ouabain ([2]; FIG. 6, hearts pretreated with 10 uM ranolazine): reached the same value as in the absence of ranolazine | RPP during the wash out period ([2]; FIG. 6, ouabain in the presence of ranolazine vs ouabain alone): improved | decrease of RPP (rate pressure product) ([2]; FIG. 6, pretreatment with 10 uM ranolazine, before ouabain): about 20% | developed pressure ([2]; FIG. 7, ouabain, hearts treated with 10 uM ranolazine): increased | LVDevP at the end of washout ([2]; ouabain + 3 μmol/L ranolazine): 59.2±5.5 mmHg | positive inotropic effect of ouabain throughout the 60-min exposure ([2]; ouabain + 10 μmol/L ranolazine (n=8) or 1 μmol/L TTX (n=6)): sustained | episodes of cardiac standstill and changes in LVEDP ([2]; ouabain + 10 μmol/L ranolazine or 1 μmol/L TTX): neither episodes of cardiac standstill nor changes in LVEDP were observed | LVDevP at the end of washout ([2]; ouabain + 5 or 10 μmol/L ranolazine or 1 μmol/L TTX): not significantly different from control | recovery of contractile function after drug washout ([2]; ouabain + 5 or 10 μmol/L ranolazine or 1 μmol/L TTX, vs ouabain alone): better recovery | LVSP decrease ([2]; ranolazine alone 3 μmol/L): 8% | LVSP decrease ([2]; ranolazine alone 5 μmol/L): 16.7% | LVSP decrease ([2]; ranolazine alone 10 μmol/L): 15.8% | [Na+]i plateau concentration ([3]; 1.3 μmol/L ouabain in the presence of 10 μmol/L ranolazine, n=8): 15.4 ± 0.45 mmol/L | [Na+]i ([3]; 10 μmol/L ranolazine for up to 30 min or 1 μmol/L TTX for 10 min, no ouabain): did not significantly change | ouabain-induced increase in [Na+]i ([3]; 3 or 10 μmol/L ranolazine given after 40 min of 0.75 μmol/L ouabain alone, pooled n=6, FIG. 8C): partially reversed | cardiac [Na+]i during normal perfusion ([3]; Example 1, RAN 10 μM): did not change | [Na+]i accumulation during ouabain treatment ([3]; Example 1, RAN 10 μM, P<0.01): reduced | decrease in the ouabain-induced rise of [Na+]i ([3]; FIG. 8E, Ran 3 and 10, TTX 0.5 and 1 μmol/L): concentration-dependent | [Na+]i ([3]; ranolazine 10 μmol/L for 30 min, no ouabain, n=5, control 6.9±0.6): 6.5 ± 0.4 mmol/L | level of [Na+]i in hearts previously exposed to ouabain alone for 40 min ([3]; ranolazine 10 μmol/L, 30 min, FIG. 8C): did not significantly reduce | [Pi] increase [5, 7]: 1.3±0.1 times | fall in pHi [5, 7]: not significant | [ATP] [5, 8]: did not change significantly | [PCr] decrease from baseline [5, 8]: 19±5% | [Pi] increase ([5]; Example 1, RAN + ouabain): 14% | pH ([5]; Example 1, RAN + ouabain): remained constant | ATP and PCr decrease ([5]; Example 1, RAN pretreatment, after 60 min of ouabain treatment): 20% | decrease of |ΔG~ATP| ([5]; ouabain in the presence of 10 μmol/L ranolazine): 0.454 ± 0.14 kcal/mol | concentrations of phosphates or pHi ([5]; ranolazine alone for 10 min): did not alter | effect of 1 μmol/L ouabain to increase late INa ([1]; FIG. 9, ranolazine 10 μmol/L or TTX 3 μmol/L): partially reversed | reduction of late INa ([1]; ranolazine 10 μmol/L in the continuous presence of ouabain 1 μmol/L, n=8): 69±9% | late INa ([1]; ranolazine 10 μmol/L in the continuous presence of ouabain, from 99.6±15.2, n=8): 50.6±13.6 pC/pF | increase of diastolic tension during ouabain treatment ([4]; 5 and 10 μmol/L ranolazine and 1 μmol/L TTX): attenuated

COc1ccc(S(=O)(=O)N(CCO)c2ccccc2CN(C)C/C=C/c2ccc(Cl)cc2)cc1 [KN-93]
effect of ouabain (1 μmol/L) to increase late INa [1]: attenuated | increase of late INa at the end of a 10-min exposure to ouabain [1, 6]: 76±35% | late INa at the end of a 10-min exposure to ouabain [1, 6]: 33±6 pC/pF

O=C(O)CN(CCOCCOCCN(CC(=O)O)CC(=O)O)CC(=O)O [EGTA]
effect of ouabain (1 μmol/L) to increase late INa [1]: attenuated | late INa at the end of a 10-min exposure to ouabain ([1]; EGTA 1 mmol/L in patch pipette, from 23±3, n=6): 31±8 pC/pF | increase of late INa at the end of a 10-min exposure to ouabain ([1]; EGTA 1 mmol/L in patch pipette, n=6): 33±28%

Source: US20100130436A1, “CO-ADMINISTRATION OF RANOLAZINE AND CARDIAC GLYCOSIDES” (priority 2008, published 2010)
